Experiments:
mice = test: Porsolt's forced swim test; assay type: in vivo, mouse; conditions: 100 nM KN-62 or 10 μM oATP, 1 μl each side, dentate gyrus; 24 hours after injection; DBA/201a mice
Procedure: Further validation of role of P2X7R in affective disorders was performed by examining its expression pattern in response to stress and treatment with antidepressant drugs. […] In parallel, a control group of mice was given vehicle solution (i.e. without paroxetine) using the same treatment regiment while a second control group of mice was left undisturbed and stress-free (i.e. untreated) during the same period of the experiments. At the end of the long-term treatment, part of the mice of each experimental group were tested in the dark/light box (test of anxiety behaviour) and in the Porsolt's forced swim test (test of depressive-like behaviour) to confirm the effectiveness of the treatment (FIG. 5). […] The other part of the experimental groups (i.e. mice without test experience) were decapitated, brains rapidly removed and frozen at −80° C. until usage.
The effects of P2X7R inhibition on depressive-like behaviour was assessed 24 hours and 48 hours after infusion of siRNA, control or vehicle according to the standard test paradigm, the Porsolt's forced swim test (Porsolt et al., Arch. Int. Pharmacodym. 229 (1977), 327-336; Porsolt, Rev. Neurosci. 11 (2000), 53-58). […] Compared to vehicle application, no influence of control double stranded RNA (5′-[…]-3′) on floating behaviour (passive stress coping) was detected. […] This interpretation becomes moreover evident when the effects of antidepressants on passive stress coping behaviour in the forced swim test are visualized (FIG. 5). Passive stress coping behaviour increased after acute intrahippocampal injection (bilateral, dentate gyrus) of siRNA targeting P2X7R. The Porsolt's forced swim test is a standard test used to assess the effectiveness of antidepressants and it has been proven by many studies that the test is selectively sensitive for these effects, given that the right animal model is used. The paradigm has been widely used to test pharmaceutical compounds and to validate animal models of depression, which show an increase in passive behaviour as do the mice where P2X7R has been inhibited (siRNA).
The forced swim test is a standard test that measures primary stress-induced reductions in avoidance or escape, termed behavioural despair. The test is used to determine the effectiveness of antidepressants, test new pharmaceutical compounds and validate animal models of depression (Porsolt et al., Arch. Int. Pharmacodym. 229 (1977), 327-336; Porsolt, Rev. Neurosci. 11 (2000), 53-58; Rénéric et al., Behav. Brain Res. 136 (2002), 521-532; Page et al., Psychopharmacology 165 (2003), 194-201; Kelliher et al., Psychoneuroendocrinology 28 (2003), 332-347). The test consists of placing a mouse for a period of 5 minutes into a glass cylinder containing water. Under such circumstances, the mouse cannot touch the bottom of the cylinder and is thus forced to swim. Time, latency and frequency of struggling versus floating are scored as behavioural parameters. […] Increased struggling (i.e. active attempts to escape) indicates active coping behaviour that can be interpreted as an improvement of depression-like symptoms. For example, treatment with serotonergic antidepressants reduce the total time spent floating (Borsini, Neurosci. Biobehav. Rev. 19 (1995), 377-395; Redrobe and Bourin, Psychopharmacology 138 (1998), 198-206, and in parallel increases the time of active behaviour (i.e. swimming or struggling; Lucki et al., Psychopharmacology 155 (2001), 315-322).
The behaviour of individual mice was assessed using the Porsolt's forced swim test 24 hours after injection of vehicle solution, KN-62, or oATP. A pre-exposure of 5 minutes to the test was performed 15-17 minutes after administration of vehicle, KN-62, or oATP. A description of the Porsolt's forced swim test is given in example 9. […]

P2X7R [1] = molecular target: T1, P2X7R (Mus musculus, UniProt Q9Z1M0); test: Calcium influx into HT-22 cells (Oregon green AM ester); assay type: cell-based; parameters: dose or concentration left out as unconfirmed; conditions: HT-22 cells pre-treated with oATP for 1 hour before BzATP
T1 construct: an immortalised mouse hippocampal cell line expressing the endogenous P2X7 gene; endogenous in cells; host or cells: HT-22 mouse hippocampal cell line
T1 sequence (Q9Z1M0 1-595): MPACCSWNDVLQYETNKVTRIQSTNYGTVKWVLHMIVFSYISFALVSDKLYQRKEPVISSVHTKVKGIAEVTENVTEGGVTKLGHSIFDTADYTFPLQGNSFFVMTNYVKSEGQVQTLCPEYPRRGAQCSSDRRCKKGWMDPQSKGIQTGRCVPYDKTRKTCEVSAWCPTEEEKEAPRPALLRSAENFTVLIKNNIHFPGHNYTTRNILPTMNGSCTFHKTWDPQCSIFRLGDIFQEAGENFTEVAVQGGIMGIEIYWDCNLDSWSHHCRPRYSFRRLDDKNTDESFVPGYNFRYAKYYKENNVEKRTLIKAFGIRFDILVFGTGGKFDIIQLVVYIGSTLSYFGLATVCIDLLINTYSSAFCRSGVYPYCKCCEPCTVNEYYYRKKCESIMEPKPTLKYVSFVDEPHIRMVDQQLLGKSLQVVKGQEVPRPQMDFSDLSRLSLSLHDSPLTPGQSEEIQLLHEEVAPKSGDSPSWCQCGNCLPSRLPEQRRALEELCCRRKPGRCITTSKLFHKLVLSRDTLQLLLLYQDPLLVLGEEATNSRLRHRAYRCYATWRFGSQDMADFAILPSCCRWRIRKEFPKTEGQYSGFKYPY
Excerpt: Since P2X7R is an ATP-gated ion channel which allows the entry of calcium and sodium ions into cells, a method for identifying P2X7R agonist was established by monitoring calcium influx into HT-22 cells. […] Calcium movement into the cells was visualised under a fluorescent microscope with a fluorescein filter (wavelength 492/517 nm). Oregon green AM ester is a fluorescent dye that binds to intracellular calcium. […] Alternatively, Oregon green AM ester can be replaced by Fluo-3, fluo-4, fluo-5F, fluo-5N, fluo4FF, Fluo4 dextran, Fluo-3 AM, Fluo-4 AM, Fluo-5F AM, Fluo-5N AM and Fluo4FF AM (Molecular Probes). Calcium influx in HT-22 cells can also be measured in 96-well and 384-well microplate using the Calcium Plus Assay Kit (Molecular Device) or FLIPR® Calcium Assay Kit for Fluorometric Imaging Plate Reader Systems (Molecular Device). HT-22 cells can be replaced by any cells expressing P2X7R, including cells that have been genetically modified by introducing an exogenous P2X7 gene.
Activation of P2X7R by the agonist was inhibited by oATP (FIG. 18) as illustrated by the absence of green fluorescence in the cells.

P2X7R [2] = molecular target: T1, P2X7R; test: Entry of ethidium bromide into HT-22 cells; assay type: cell-based; conditions: pre-incubation 60 minutes with 100 μM o-ATP before agonist and ethidium bromide
Excerpt: Yet another method of measuring P2X7R activity involves the entry of ethidium bromide into P2X7R expressing cells. Activation of P2X7R by an agonist allows the entry of ethidium bromide which binds nuclear DNA and emits a fluorescence signal. Alternatively, the propidium dye YOPRO-1 can be substituted for ethidium bromide. An increase in fluorescence can be used as a measure of P2X7 receptor activation. Therefore, the assay can be used to test and quantify the effect of an agent or compound with agonist properties on P2X7R. In the present example, 10^3 HT-22 cells were seeded per well in a 96-well flat bottom microtitre plates and incubated at 37° C./5% CO2 in DMEM medium containing 10% FCS until the cells attached to the culture surface. […] The number of fluorescent cells which have integrated the ethidium bromide to the DNA can then be counted using a fluorescent microscope (Zeiss, Germany). […] Alternatively, ethidium bromide fluorescence can be measured using a Perkin-Elmer fluorescent plate reader (excitation 520 nm, emission 595 nm, slit widths: Ex 15 nm, Em 20 nm). From the readings obtained, a pIC50 figure can be calculated for each candidate agent or compound. […] The specificity of an agonist for P2X7R can be evaluated by pre-incubation of the cells for 60 minutes with 100 μM o-ATP before adding the agonist and ethidium bromide dye.

## Nc1ncnc2c1ncn2[C@@H](C=O)O[C@@H](C=O)COP(=O)(O)OP(=O)(O)OP(=O)(O)O [oATP]
mice
  active escape attempts (time, frequency, latency of struggling) in the forced swim test: no changes
  passive behaviour (time, frequency, latency of floating) in the forced swim test: no changes
P2X7R [1]
  activation of P2X7R by the agonist (BzATP) after antagonist pre-treatment, calcium influx: inhibited
P2X7R [2]
  number of fluorescent cells after antagonist pre-incubation (ethidium bromide entry): reduction in the number of fluorescent cells
